Source: ChEMBL document CHEMBL5528053, “Discovery of Novel Isoquinoline Analogues as Dual Tubulin Polymerization/V-ATPase Inhibitors with Immunogenic Cell Death Induction” (J Med Chem, 2024)
Active and inactive are the calls of the source. The calls are words filed in the database; no cut-off is given here.

What was measured:
PC-3 [1] = experiment: Induction of apoptosis in human PC-3 cells assessed as viable cells at 200 nM measured after 24 hrs by annexin V-FITC and PI staining based flow cytometry analysis (reference value: 90.6%); assay type: functional; conditions: read-out: Activity
[2] = Binding affinity to porcine brain tubulin polymerization assessed as dissociation constant measured after 20 mins by fluorescence based analysis; assay type: tissue-based, Sus scrofa
PC-3 [3] = experiment: Induction of cell cycle arrest in human PC-3 cells assessed as reduction in cdc25c phosphorylation at ser216 residue at 50 to 200 nM incubated for 24 hrs by DAPI staining based analysis; assay type: functional; conditions: dose 50-200 nM
PC-3 [4] = experiment: Induction of apoptosis in human PC-3 cells measured after 24 hrs by annexin V-FITC and PI staining based flow cytometry analysis; assay type: functional, cell-based; conditions: dose 50-200 nM
A549 = experiment: Inhibition of cell migration in human A549 cells at upto 100 nM incubated for 24 hrs by inverted fluorescence microscope analysis; assay type: functional, cell-based
[5] = Toxicity in ICR mouse assessed as effect on BUN level at 10 mg/kg, ip measured for 14 days; assay type: organism-based; conditions: in vivo, 336 h, time 14 day
[6] = Antitumor activity against mouse RM1 cells homografted in C57BL/6 mouse model assessed as tumor growth inhibition at 5 mg/kg, iv administered every two days for 14 days by vernier caliper based analysis relative to control; assay type: functional; conditions: RM1, 336 h, time 14 day, read-out: TGI
PC-3 [7] = experiment: Induction of cell cycle arrest in human PC-3 cells assessed as reduction in cyclin B1 at 50 to 200 nM incubated for 24 hrs by DAPI staining based analysis; assay type: functional; conditions: dose 50-200 nM
[8] = Anticancer activity against mouse RM1 cells assessed as increase in mean fluorescence intensity at 400 nM measured after 24 hrs by flow cytometry analysis (reference value: 7.40+/-3.96 ); assay type: functional
PC-3 [9] = experiment: Induction of immunogenic cell death in human PC-3 cells assessed as increase in CRT translocation to cell surface at 200 nM measured after 12 hrs in presence of TUDCA by DAPI staining based analysis; assay type: functional
Tubulin (Homo sapiens) [10] = target: T1, Tubulin (Homo sapiens) (UniProt P68371+Q9H4B7+P0DPH7+P68366+Q13509+Q71U36+P04350+Q3ZCM7+P07437+P68363+Q9BQE3+Q6PEY2+Q13885+Q9BVA1+Q9BUF5); experiment: Inhibition of tubulin polymerization (unknown origin) assessed as reduction in intracellular AC-alpha-tubulin at 50 to 200 nM measured for 6 hrs by […] Western blot analysis; assay type: cell-based; conditions: PC-3, dose 50-200 nM
PC-3 [11] = experiment: Induction of cell cycle arrest in human PC-3 cells assessed as increase in histone H3at Ser10 residues at 50 to 200 nM incubated for 24 hrs by DAPI staining based analysis; assay type: functional; conditions: dose 50-200 nM
PC-3 [12] = experiment: Induction of apoptosis in human PC-3 cells assessed as late apoptotic cells at 200 nM measured after 24 hrs by annexin V-FITC and PI staining based flow cytometry analysis (reference value: 2.37%); assay type: functional
PC-3 [13] = experiment: Induction of immunogenic cell death in human PC-3 cells assessed as decrease in HMGB1 content in tumor cells at 50 to 200 nM; assay type: functional, cell-based; conditions: dose 50-200 nM
PC-3 [14] = experiment: Inhibition of V-ATPase activity in human PC-3 cells at 100 nM measured after 24 hrs by colorimetric assay relative to control; assay type: cell-based
[15] = Antitumor immunity against mouse RM1 cells homografted in C57BL/6 mouse model assessed as increase in tumor infiltrating CD3+CD8+T cells (CTLs) at 10 mg/kg, iv administered every two days for 14 days by flow cytometry analysis (reference value: 0.89%); assay type: functional; conditions: time 14 day
PC-3 [16] = experiment: Induction of endoplasmic reticulum (ER) stress in human PC-3 cells assessed as upregulation of eIF2 alpha phosphorylation at […] residues at 50 to 200 nM measured after 24 hrs by Western blot analysis; assay type: functional, cell-based; conditions: dose 50-200 nM
[17] = Toxicity in ICR mouse assessed as effect on lymphocytes at 10 mg/kg, ip measured for 14 days; assay type: organism-based; conditions: in vivo, 336 h, time 14 day
PC-3 [18] = experiment: Induction of cell cycle arrest in human PC-3 cells assessed as accumulation of cells at G2/M phase at 200 nM incubated for 24 hrs by flow cytometry analysis (reference value: 19.5%); assay type: functional
[19] = Toxicity in ICR mouse assessed as effect on heart at 10 mg/kg, ip measured for 14 days by H and E staining based analysis; assay type: organism-based; conditions: in vivo, 336 h, time 14 day
PC-3 [20] = experiment: Inhibition of V-ATPase activity in human PC-3 cells measured after 24 hrs by colorimetric assay; assay type: cell-based; conditions: dose 50-800 nM
[21] = Antitumor immunity against mouse RM1 cells homografted in C57BL/6 mouse model assessed as increase in tumor infiltrating CD3+CD8+T cells (CTLs) at 5 mg/kg, iv administered every two days for 14 days by flow cytometry analysis (reference value: 0.89%); assay type: functional; conditions: time 14 day
PC-3 [22] = experiment: Induction of apoptosis in human PC-3 cells assessed as late apoptotic cells at 100 nM measured after 24 hrs by annexin V-FITC and PI staining based flow cytometry analysis (reference value: 2.37%); assay type: functional
HUVEC = experiment: Disruption of vasculature in HUVEC cells assessed as interruption of tubelike network formation incubated for 6 hrs by inverted fluorescence microscope analysis; assay type: functional, cell-based; conditions: Homo sapiens, dose 50-200 nM
Tubulin (Homo sapiens) [23] = target: T1, Tubulin (Homo sapiens); experiment: (§1) Inhibition of tubulin polymerization (unknown origin) measured every 60 secs for 60 mins by microplate reader based analysis; assay type: protein-complex assay; conditions: dose 1.25-40 µM
Tubulin = experiment: as §1; assay type: protein-complex assay, Homo sapiens
[24] = Antitumor immunity against mouse RM1 cells homografted in C57BL/6 mouse model assessed as increase in tumor infiltrating lymphocytes at 10 mg/kg, iv administered every two days for 14 days by flow cytometry analysis (reference value: 5.26%); assay type: functional; conditions: time 14 day
PC-3 [25] = experiment: Induction of immunogenic cell death in human PC-3 cells assessed as increase in HMGB1 release from nuclei at 50 to 200 nM measured after 24 hrs by DAPI staining based analysis; assay type: functional; conditions: dose 50-200 nM
[26] = Toxicity in ICR mouse assessed as effect on CK level at 10 mg/kg, ip measured for 14 days; assay type: organism-based; conditions: in vivo, 336 h, time 14 day
PC-3 [27] = experiment: Induction of intracellular ROS generation in human PC-3 cells incubated for 24 hrs by DCFH-DA staining based confocal microscopy based analysis; assay type: functional, cell-based; conditions: dose 50-200 nM
[28] = Antitumor activity against mouse RM1 cells xenografted in immunocompetent […] mouse model assessed as tumor growth inhibition at 10 mg/kg, iv measured every two days for 14 days relative to control; assay type: functional; conditions: RM1, 336 h, time 14 day, read-out: TGI
[29] = Toxicity in ICR mouse assessed as effect on LDH level at 10 mg/kg, ip measured for 14 days; assay type: organism-based; conditions: in vivo, 336 h, time 14 day
PC-3 [30] = experiment: Induction of apoptosis in human PC-3 cells assessed as upregulation of cleaved caspase-3 level at 50 to 200 nM incubated for 24 hrs by Western blot analysis; assay type: functional, cell-based; conditions: dose 50-200 nM
PC-3 [31] = experiment: Induction of cell cycle arrest in human PC-3 cells assessed as accumulation of cells at S phase at 50 nM incubated for 24 hrs by flow cytometry analysis (reference value: 31.3%); assay type: functional
[32] = Antitumor activity against mouse RM1 cells homografted in C57BL/6 mouse model assessed as tumor growth inhibition at 10 mg/kg, iv administered every two days for 14 days by vernier caliper based analysis relative to control; assay type: functional; conditions: RM1, 336 h, time 14 day, read-out: TGI
PC-3 [33] = experiment: Inhibition of V-ATPase activity in human PC-3 cells at 800 nM measured after 24 hrs by colorimetric assay relative to control; assay type: cell-based

COc1cc(-c2nc(C(N)=O)cc3cc4c(cc23)OCCO4)cc(Br)c1OC
viability at 0.2 µM (PC-3 [1]): 50.9% | Kd [2]: 6.56 µM | Activity (PC-3 [3]): Active | Activity (PC-3 [4]): Dose-Dependent Effect | inhibition (A549): Active | Activity [5]: Non-Toxic | inhibition in vivo at 5 mg/kg [6]: 61.6% | Activity (PC-3 [7]): Active | Flu intensity [8]: 151.3 | Activity (PC-3 [9]): inactive | inhibition (Tubulin (Homo sapiens) [10]): Active | Activity (PC-3 [11]): Active | Activity (PC-3 [12]): 19.4% | Activity (PC-3 [13]): Active | inhibition (PC-3 [14]): 26.2% | Activity [15]: 2.27% | Activity (PC-3 [16]): Active | Activity [17]: Non-Toxic | Activity (PC-3 [18]): 65.8% | Activity [19]: Non-Toxic | inhibition (PC-3 [20]): Dose-Dependent Effect | Activity [21]: 1.59% | Activity (PC-3 [22]): 10.3% | Activity (HUVEC): Active | inhibition (Tubulin (Homo sapiens) [23]): Dose-Dependent Effect | IC50 (Tubulin): 6.33 µM | Activity [24]: 8.03% | Activity (PC-3 [25]): Active | Activity [26]: Non-Toxic | Activity (PC-3 [27]): Dose-Dependent Effect | inhibition in vivo at 10 mg/kg [28]: 70.2% | Activity [29]: Non-Toxic | Activity (PC-3 [30]): Active | Activity (PC-3 [31]): 29.3% | inhibition in vivo at 10 mg/kg [32]: 70.2% | inhibition (PC-3 [33]): 77.4%
